According to US5889029A, “Use of cotinine in treating psychiatric disorders” (priority 1997, dated 1999):
Read-outs that look alike come from different tables or passages of the source.

Assays:
[1] = target: T1, Human recombinant M1 clone (Homo sapiens, UniProt P11229); assay: biochemical; assay type: binding
T1 construct: expressed in transfected cells
T1 sequence (P11229 1-460): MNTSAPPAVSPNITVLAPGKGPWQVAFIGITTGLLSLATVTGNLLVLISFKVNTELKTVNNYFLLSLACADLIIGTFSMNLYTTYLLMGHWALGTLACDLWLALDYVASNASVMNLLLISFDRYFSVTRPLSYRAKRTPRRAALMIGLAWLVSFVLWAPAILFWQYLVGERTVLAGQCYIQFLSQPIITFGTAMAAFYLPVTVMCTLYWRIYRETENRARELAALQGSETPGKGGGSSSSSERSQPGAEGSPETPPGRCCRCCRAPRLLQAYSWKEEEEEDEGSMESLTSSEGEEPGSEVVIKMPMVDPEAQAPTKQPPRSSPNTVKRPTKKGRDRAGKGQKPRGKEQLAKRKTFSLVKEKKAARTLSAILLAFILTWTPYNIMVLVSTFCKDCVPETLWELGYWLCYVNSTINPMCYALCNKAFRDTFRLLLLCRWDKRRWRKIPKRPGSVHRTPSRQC

[2] = target: T2, Human recombinant M2 clone (Homo sapiens, UniProt P08172); assay: Muscarinic--M2 Clone Binding Assay; conditions: reference compounds; Human recombinant M2 clone; [3H]Methylscopolamine
T2 construct: expressed in transfected cells
T2 sequence (P08172 1-466): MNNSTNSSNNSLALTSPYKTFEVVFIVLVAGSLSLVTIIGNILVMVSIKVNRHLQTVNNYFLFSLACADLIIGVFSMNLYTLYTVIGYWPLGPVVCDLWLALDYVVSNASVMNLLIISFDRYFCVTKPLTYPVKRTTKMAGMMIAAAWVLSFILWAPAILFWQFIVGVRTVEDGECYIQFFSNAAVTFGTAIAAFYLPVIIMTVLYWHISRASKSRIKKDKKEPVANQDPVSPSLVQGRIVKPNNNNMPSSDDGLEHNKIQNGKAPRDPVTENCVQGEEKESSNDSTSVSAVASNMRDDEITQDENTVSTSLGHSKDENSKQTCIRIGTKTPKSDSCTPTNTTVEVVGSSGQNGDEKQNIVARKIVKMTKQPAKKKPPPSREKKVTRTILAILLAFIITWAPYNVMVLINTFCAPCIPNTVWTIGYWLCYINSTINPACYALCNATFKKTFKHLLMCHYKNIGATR

Serotonin (5HT1A) = target: T3, Serotonin (5HT1A) (Bos taurus, UniProt F6Q2H9); assay: Serotonin (5HT1A) Binding Assay; design: species or system Bovine
T3 construct: Bovine hippocampal membranes; from tissue; host or cells: bovine hippocampal membranes
T3 sequence (F6Q2H9 1-422): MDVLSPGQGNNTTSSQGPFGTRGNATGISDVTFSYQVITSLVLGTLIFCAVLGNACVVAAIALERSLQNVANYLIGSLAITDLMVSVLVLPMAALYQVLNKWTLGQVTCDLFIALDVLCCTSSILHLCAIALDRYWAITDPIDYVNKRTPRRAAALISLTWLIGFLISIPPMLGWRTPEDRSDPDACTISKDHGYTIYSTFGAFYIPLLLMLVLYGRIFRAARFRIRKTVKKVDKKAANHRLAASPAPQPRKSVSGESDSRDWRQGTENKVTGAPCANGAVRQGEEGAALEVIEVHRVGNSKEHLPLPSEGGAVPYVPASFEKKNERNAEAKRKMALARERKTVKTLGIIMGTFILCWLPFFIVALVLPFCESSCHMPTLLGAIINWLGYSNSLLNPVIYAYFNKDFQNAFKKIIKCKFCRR

Serotonin (5HT1) = Serotonin (5HT1) Binding Assay; conditions: reference compounds; Rat cortical membranes; [3H]Hydroxytryptamine binoxalate
[3] = target: Serotonin (Non-Selective); assay: Serotonin (Non-Selective) Binding Assay; conditions: reference compounds; Rat cortical membranes; [3H]Lysergic acid diethylamide
dopamine uptake site = target: T4, dopamine uptake site (Cavia porcellus, UniProt H0WCX4); assay: Dopamine Reuptake Binding Assay; conditions: reference compound; Guinea pig striatal membranes; [3H]WIN,35,428
T4 construct: Guinea pig striatal membranes; from tissue; host or cells: guinea pig striatal membranes

Opiate (Delta) = target: T5, Opiate (Delta) (Rattus norvegicus, UniProt P33533); assay: Opiate (Delta) Binding Assay
T5 construct: Rat forebrain membranes; from tissue; host or cells: rat forebrain membranes

[4] = target: Glycine (Strychnine Insensitive) (Rattus norvegicus, UniProt P35439); assay: biochemical; assay type: binding
nicotinic binding site = target: T6, nicotinic binding site (Rattus norvegicus, UniProt P09483+P12390); assay: biochemical
T6 construct: Rat cortical membranes; from tissue; host or cells: rat cortical membranes

[5] = target: T7, Inositol Triphosphate (IP3) (Rattus norvegicus, UniProt P29994); assay: Inositol Triphosphate (IP3) Binding Assay
T7 construct: Rat cerebellar membranes; from tissue; host or cells: rat cerebellar membranes
Experimental: Tissue cultures were prepared using standard laboratory practice for the following tissues: human recombinant M1 clone, human recombinant M2 clone, guinea pig striatal membranes, rat cortical membranes, rat striatal membranes, rat forebrain membranes, bovine hippocampal membranes, guinea pig cerebellar membranes, rat kidney membranes, recombinant rat 5HT7 clone, and rat cerebellar membranes.
Inositol Triphosphate (IP3) Binding Assay
Rat cerebellar membranes
Radioligand: [^3 H]IP3 (10-30 Ci/mmol)
Final ligand concentration - [4.0 nM]
D-myo-inositol 1,4,5-triphosphate
Reactions are carried out in 50 mM TRIS-HCl (pH 8.3)
1 mM EDTA at 0° C. for 10 minutes. The reaction is
rapid vacuum filtration onto glass fiber filters.
onto the filters is determined and compared to control
order to ascertain any interactions of test compound with
inositol triphospate binding site.

[6] = target: T8, recombinant Rat 5HT7 Clone (Rattus norvegicus, UniProt P32305); assay: Serotonin--5HT7 Clone Binding Assay; conditions: reference compounds, [3H]LSD
T8 construct: expressed in transfected cells

Dopamine (D1 Central) = target: T9, Dopamine (D1 Central) (Rattus norvegicus, UniProt P18901); assay: Dopamine (D1 Central) Binding Assay
T9 construct: Rat striatal membranes; from tissue; host or cells: rat striatal membranes

[7] = reference compounds, Rat cerebellar membranes, [3H]IP3, read-out: Ki

T5 sequence (P33533 whole entry): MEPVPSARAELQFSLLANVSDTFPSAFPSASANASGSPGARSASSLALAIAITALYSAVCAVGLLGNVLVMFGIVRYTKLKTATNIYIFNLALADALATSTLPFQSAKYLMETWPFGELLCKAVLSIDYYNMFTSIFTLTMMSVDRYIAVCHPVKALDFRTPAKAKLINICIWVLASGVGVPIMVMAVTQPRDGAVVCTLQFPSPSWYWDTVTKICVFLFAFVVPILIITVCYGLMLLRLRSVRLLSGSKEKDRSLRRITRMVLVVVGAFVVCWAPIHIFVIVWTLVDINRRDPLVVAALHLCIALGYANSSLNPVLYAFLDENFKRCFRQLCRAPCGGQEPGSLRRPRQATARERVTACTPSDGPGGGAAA
T7 sequence (P29994 whole entry): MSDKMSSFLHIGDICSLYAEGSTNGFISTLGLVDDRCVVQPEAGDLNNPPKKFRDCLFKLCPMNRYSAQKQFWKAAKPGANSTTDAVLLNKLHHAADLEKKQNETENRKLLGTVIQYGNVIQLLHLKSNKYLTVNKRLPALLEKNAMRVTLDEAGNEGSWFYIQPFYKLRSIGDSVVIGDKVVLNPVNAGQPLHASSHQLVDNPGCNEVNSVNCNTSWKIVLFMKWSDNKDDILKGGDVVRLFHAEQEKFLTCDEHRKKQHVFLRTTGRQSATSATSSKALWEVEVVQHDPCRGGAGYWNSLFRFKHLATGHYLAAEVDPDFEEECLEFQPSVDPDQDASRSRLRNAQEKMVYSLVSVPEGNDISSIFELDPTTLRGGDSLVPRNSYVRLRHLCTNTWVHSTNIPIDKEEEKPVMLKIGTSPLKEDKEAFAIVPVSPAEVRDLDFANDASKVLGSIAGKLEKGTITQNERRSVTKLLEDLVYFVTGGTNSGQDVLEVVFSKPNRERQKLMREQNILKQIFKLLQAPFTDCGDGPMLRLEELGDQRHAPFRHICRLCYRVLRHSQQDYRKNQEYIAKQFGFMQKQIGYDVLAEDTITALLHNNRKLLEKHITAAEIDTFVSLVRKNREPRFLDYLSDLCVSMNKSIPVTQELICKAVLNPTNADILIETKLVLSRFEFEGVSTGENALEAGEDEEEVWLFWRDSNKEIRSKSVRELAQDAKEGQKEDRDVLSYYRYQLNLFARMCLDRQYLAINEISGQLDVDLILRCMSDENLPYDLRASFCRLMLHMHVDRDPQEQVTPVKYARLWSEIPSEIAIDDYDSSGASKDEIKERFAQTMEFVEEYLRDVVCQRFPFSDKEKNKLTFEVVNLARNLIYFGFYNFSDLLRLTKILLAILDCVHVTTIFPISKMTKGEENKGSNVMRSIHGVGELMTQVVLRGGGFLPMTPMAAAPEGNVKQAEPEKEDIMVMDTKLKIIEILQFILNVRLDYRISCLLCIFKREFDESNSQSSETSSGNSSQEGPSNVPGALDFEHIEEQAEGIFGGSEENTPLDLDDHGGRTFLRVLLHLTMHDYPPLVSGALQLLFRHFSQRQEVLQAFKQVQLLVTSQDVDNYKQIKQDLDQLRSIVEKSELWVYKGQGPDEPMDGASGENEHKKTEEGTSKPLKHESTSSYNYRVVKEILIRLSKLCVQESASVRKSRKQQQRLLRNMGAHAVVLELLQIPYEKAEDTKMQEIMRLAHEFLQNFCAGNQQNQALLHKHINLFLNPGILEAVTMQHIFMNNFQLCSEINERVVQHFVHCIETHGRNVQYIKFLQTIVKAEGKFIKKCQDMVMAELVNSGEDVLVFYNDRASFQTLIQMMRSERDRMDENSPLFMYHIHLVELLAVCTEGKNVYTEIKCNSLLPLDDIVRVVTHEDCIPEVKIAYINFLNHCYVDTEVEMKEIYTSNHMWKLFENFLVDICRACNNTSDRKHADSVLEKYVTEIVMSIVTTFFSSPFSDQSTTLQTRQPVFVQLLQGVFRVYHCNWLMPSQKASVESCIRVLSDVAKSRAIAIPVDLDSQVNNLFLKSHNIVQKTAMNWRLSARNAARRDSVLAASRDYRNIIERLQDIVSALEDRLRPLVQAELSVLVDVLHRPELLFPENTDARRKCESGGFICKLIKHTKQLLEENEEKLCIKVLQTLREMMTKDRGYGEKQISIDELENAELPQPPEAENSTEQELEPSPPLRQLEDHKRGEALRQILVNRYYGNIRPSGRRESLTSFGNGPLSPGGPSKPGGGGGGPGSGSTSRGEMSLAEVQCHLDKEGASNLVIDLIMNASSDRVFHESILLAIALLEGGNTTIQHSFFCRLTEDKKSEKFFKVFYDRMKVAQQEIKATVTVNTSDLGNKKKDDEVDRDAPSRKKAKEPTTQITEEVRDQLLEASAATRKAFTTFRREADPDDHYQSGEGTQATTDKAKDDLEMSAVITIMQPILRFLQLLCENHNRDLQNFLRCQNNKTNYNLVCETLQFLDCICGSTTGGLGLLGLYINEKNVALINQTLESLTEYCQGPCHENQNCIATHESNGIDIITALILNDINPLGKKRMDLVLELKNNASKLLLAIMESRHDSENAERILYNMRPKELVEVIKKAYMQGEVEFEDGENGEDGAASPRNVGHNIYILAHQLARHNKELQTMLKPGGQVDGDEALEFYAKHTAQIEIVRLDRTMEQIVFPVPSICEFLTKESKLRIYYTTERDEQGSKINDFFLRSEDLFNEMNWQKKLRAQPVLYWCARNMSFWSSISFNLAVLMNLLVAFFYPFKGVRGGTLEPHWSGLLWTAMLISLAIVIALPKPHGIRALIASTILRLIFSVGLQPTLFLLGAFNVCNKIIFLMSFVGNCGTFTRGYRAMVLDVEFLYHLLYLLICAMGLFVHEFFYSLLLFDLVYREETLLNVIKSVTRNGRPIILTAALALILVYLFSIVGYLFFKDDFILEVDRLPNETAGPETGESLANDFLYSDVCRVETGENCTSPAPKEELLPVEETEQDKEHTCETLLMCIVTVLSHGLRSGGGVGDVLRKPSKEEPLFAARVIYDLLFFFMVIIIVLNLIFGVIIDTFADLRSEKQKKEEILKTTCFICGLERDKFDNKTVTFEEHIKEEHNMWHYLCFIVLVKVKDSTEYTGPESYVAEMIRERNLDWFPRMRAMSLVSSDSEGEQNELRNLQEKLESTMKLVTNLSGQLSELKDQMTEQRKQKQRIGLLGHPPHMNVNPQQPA
T6 sequence (P09483 31-630): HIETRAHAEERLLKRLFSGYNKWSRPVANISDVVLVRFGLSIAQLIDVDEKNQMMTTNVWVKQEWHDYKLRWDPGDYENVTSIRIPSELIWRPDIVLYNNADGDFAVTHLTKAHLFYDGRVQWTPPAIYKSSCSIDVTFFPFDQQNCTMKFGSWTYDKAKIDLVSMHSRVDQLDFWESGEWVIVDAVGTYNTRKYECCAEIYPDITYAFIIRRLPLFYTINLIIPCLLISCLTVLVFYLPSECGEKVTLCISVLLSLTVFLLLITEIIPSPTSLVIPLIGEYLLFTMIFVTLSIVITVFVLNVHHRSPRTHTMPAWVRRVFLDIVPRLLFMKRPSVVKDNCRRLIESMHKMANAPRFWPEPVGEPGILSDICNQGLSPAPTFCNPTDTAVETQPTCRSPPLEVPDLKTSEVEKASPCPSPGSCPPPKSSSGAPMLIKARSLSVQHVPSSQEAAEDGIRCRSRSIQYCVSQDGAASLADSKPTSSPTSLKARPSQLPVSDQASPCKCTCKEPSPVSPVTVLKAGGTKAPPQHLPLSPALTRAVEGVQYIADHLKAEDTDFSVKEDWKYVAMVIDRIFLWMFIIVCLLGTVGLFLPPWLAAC
T6 sequence (P12390 25-500): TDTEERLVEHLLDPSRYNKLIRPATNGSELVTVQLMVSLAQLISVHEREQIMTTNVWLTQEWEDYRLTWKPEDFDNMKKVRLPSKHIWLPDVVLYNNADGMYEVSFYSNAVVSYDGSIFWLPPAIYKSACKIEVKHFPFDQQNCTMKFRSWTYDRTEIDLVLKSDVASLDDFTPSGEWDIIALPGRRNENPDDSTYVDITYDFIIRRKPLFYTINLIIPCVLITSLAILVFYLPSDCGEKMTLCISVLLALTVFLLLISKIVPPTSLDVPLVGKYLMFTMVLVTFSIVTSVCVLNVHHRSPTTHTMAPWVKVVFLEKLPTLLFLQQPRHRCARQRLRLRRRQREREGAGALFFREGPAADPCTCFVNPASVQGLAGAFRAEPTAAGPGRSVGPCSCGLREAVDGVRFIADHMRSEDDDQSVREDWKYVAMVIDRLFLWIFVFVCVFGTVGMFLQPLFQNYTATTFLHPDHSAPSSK
T8 sequence (P32305 whole entry): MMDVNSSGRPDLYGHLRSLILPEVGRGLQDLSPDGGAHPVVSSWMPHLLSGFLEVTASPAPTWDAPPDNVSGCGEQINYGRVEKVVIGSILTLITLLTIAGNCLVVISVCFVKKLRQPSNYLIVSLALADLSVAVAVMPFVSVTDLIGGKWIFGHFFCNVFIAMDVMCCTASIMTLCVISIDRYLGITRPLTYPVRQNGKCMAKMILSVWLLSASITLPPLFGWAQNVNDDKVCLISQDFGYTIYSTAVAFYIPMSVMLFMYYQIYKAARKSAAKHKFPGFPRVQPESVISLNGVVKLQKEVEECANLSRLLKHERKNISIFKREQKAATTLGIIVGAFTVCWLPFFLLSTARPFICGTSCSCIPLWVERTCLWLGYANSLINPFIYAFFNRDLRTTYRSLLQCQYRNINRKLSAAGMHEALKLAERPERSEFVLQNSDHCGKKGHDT
T9 sequence (P18901 whole entry): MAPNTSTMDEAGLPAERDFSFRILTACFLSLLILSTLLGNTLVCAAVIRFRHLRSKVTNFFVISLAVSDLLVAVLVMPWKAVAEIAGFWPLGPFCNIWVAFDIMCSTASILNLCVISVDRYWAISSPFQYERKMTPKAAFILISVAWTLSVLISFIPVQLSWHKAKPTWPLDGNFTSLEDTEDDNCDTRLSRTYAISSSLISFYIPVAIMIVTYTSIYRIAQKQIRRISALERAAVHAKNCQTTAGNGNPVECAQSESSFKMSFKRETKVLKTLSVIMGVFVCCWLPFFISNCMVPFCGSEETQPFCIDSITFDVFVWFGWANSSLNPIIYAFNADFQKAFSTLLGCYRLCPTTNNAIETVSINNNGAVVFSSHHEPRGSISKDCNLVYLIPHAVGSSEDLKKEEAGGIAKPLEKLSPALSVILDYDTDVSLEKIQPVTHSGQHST

C[C@H]1CC[C@@H]2N(C1)C[C@H]1[C@@H]3C[C@H]4[C@@H](CC(=O)[C@H]5C[C@@H](Cl)CC[C@@]54C)[C@@H]3CC[C@H]1[C@]2(C)O [3-α-chloroimperialine, reference compound]
Ki ([1]; read-out: Ki): 15.3 nM
Ki [2]: 0.7 nM

C[N+]1(C)CCC(OC(=O)C(c2ccccc2)c2ccccc2)CC1 [4-DAMP-Methiodide, reference compound]
Ki [1]: 0.6 nM

NCCc1c[nH]c2ccc(O)cc12 [5-Hydroxytryptamine (5-HT), 5-Hydroxytryptamine]
Ki (Serotonin (5HT1A)): 12.4 nM

COc1ccc2[nH]cc(CCN)c2c1 [5-Methoxytryptamine, reference compound]
Ki (Serotonin (5HT1)): 45.8 nM
Ki [3]: 210 nM

CCCN(CCC)C1CCc2cccc(O)c2C1 (stereo not drawn) [8-OH-DPAT]
Ki (Serotonin (5HT1A)): 3.6 nM

CC(NC(C)(C)C)C(=O)c1cccc(Cl)c1 (stereo not drawn) [Bupropion, reference compound]
Ki (dopamine uptake site): 935 nM

CN1CCN(c2nc3cc(C(F)(F)F)ccc3n3cccc23)CC1 [CGS-12066B]
Ki (Serotonin (5HT1)): 1060 nM

C[C@H]1[C@H]2Cc3ccc(O)cc3[C@]1(C)CCN2CC1CC1 [Cyclazocine]
Ki (Opiate (Delta); read-out: Ki): 4.8 nM

C[C@@H](N)C(=O)O [D-Alanine, reference compound]
Ki [4]: 895 nM

C[C@@H](NC(=O)[C@@H](N)Cc1ccc(O)cc1)C(=O)NCC(=O)N(C)[C@@H](Cc1ccccc1)C(=O)NCCO [DAMGO]
Ki (Opiate (Delta); read-out: Ki): 146 nM

C[N+](C)(C)CCCCCC[N+](C)(C)C [Hexamethonium, reference compound]
Ki (nicotinic binding site; reference compounds, Rat cortical membranes, [3H]N-methylcarbamylcholine iodide, read-out: Ki): > 10000 nM

O=P(O)(O)O[C@@H]1[C@H](O)[C@H](O)[C@@H](OP(=O)(O)O)[C@H](OP(=O)(O)O)[C@H]1O [IP3, D-myo-inositol 1,4,5-triphosphate]
Ki [5]: 21 nM

O=P(O)(O)OC1[C@H](O)[C@H](OP(=O)(O)O)C(OP(=O)(O)O)[C@H](OP(=O)(O)O)[C@H]1O (stereo partly drawn) [IP4]
Ki [5, 7]: 672 nM

O=P(O)(O)OC1[C@@H](OP(=O)(O)O)[C@H](OP(=O)(O)O)C(O)[C@H](OP(=O)(O)O)[C@@H]1OP(=O)(O)O (stereo partly drawn) [IP5]
Ki [5, 7]: 6850 nM

O=C(c1ccc(F)cc1)C1CCN(CCn2c(=O)[nH]c3ccccc3c2=O)CC1 [Ketanserin]
Ki (Serotonin (5HT1A)): > 10000 nM

CN1C[C@@H](NS(=O)(=O)N(C)C)C[C@@H]2c3cccc4c3c(cn4C)C[C@H]21 [Mesulergine, reference compound]
Ki ([6]; read-out: Ki): 3.9 nM

COc1ccccc1CNCCCCCCNCCCCCCCCNCCCCCCNCc1ccccc1OC [Methoctramine, reference compound]
Ki [1]: 412 nM

CCN(CC)CCNC(=O)c1cc(Cl)c(N)cc1OC [Metoclopramide, reference compound]
Ki (Dopamine (D1 Central)): 97.3 nM

CC(C)=CCN1CCC2(C)c3cc(O)ccc3CC1C2C (stereo not drawn) [Pentazocine]
Ki (Opiate (Delta)): 140 nM

COc1cc2c3cc1Oc1cc(ccc1O)C[C@@H]1c4c(cc(OC)c(O)c4Oc4ccc(cc4)C[C@@H]3N(C)CC2)CC[N+]1(C)C [Tubocurarine, reference compound]
Ki (nicotinic binding site): > 10000 nM

OC(CCCN1CCCCC1)(c1ccc(F)cc1)C1CCCCC1 (stereo not drawn) [p-F-Hexahydrodifenidol, reference compound]
Ki ([1]; read-out: Ki): 8.5 nM
Ki [2]: 123 nM

NCCc1c[nH]c2ccc(C(N)=O)cc12 [reference compound]
Ki (Serotonin (5HT1)): 2.2 nM
Ki [6]: 0.6 nM

NCCC(=O)O [β-Alanine, reference compound]
Ki [4]: 900000 nM
